{"source": "patent US20050222205A1", "about": "“Treatment of pain with ifendropil” (priority 2002, published 2005)", "key": {"[1]": {"system": "thermal stimulation of the lesioned paw", "assay": "effect of agents on thermal stimulation of the lesioned paw", "assay_type": "in vivo"}, "[2]": {"molecular_target": "NR2B-containing NMDA receptors (Homo sapiens, UniProt Q05586+Q13224)", "sequence (Q13224 27-1484, other chains not shown)": "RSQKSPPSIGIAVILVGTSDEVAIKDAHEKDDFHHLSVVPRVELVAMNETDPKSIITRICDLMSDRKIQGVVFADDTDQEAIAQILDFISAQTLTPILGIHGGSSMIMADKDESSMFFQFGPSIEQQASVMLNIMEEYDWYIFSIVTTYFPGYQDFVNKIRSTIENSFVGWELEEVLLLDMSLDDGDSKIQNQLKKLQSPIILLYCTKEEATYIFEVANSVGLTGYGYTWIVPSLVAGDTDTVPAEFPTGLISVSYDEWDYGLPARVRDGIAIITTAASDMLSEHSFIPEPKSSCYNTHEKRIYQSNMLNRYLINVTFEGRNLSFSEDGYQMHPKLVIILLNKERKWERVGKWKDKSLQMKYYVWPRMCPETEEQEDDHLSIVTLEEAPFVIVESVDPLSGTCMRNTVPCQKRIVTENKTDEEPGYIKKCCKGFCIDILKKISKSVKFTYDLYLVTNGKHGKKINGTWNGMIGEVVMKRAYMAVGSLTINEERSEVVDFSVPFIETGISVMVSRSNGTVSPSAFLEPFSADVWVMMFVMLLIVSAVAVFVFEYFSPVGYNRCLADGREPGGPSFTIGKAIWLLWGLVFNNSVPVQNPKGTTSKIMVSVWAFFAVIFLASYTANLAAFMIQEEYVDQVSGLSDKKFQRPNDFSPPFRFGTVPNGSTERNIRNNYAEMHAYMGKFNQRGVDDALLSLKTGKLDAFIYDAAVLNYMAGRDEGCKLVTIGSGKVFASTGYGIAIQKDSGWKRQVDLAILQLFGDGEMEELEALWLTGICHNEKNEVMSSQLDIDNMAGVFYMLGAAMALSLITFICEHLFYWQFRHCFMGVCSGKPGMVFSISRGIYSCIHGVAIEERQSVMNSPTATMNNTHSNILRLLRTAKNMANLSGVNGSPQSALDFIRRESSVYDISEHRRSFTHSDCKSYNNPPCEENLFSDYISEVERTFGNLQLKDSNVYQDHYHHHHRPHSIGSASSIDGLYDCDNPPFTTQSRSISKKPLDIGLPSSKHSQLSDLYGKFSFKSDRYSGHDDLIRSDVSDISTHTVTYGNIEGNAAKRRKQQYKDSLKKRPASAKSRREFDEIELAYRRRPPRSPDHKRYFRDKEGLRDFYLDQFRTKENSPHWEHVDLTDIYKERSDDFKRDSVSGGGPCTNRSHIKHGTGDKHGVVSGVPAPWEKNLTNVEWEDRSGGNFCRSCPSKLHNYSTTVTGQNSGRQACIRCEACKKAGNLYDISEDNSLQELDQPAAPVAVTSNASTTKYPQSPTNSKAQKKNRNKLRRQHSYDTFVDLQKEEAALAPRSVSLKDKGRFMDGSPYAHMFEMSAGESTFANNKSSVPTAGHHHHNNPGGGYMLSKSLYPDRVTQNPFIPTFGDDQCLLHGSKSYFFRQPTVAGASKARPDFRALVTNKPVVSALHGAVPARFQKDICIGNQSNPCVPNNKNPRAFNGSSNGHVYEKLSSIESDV", "conditions": "voltage-independent and non-competitive manner; cited from earlier work"}, "acute and chronic pain": {"system": "acute and chronic pain", "conditions": "in vivo; cited from earlier work"}, "[3]": {"system": "alpha-1 adrenergic receptor", "conditions": "cited from earlier work"}, "neuropathic pain": {"system": "neuropathic pain", "assay": "model of neuropathic pain (Bennett model)", "assay_type": "in vivo", "text": "Evidence of the incorrect conclusion reached by Chenard et al., 1991, supra, is provided by experiments conducted in a Bennett model (Bennett et al, 1988, Pain 33(1):87-107). The results are shown in the accompanying drawing."}, "alpha1-adrenoceptor": {"system": "alpha1-adrenoceptor", "assay": "hypotension liability (alpha1-adrenoceptor antagonism)"}}, "note": "Entries after “also recorded” stand apart in the source; their conditions may differ."}
{"compound": "CC(C(O)c1ccc(O)cc1)N1CCC(Cc2ccccc2)CC1", "note": "(stereo not shown) [Ifenprodil, 2-(4-benzylpiperidino)-1-(4-hydroxyphenyl)-1-propanol]", "values": [{"measurement": "effectiveness on thermal stimulation of the lesioned paw relative to comparators", "setting": "[1]; ifenprodil 3, 10 and 30 mg/kg ip, gabapentin 30 mg/kg ip, morphine 8 mg/kg ip", "value": "more effective than gabapentin; also recorded: almost as effective as morphine"}, {"measurement": "block of NR2B-containing NMDA receptors", "setting": "[2]", "value": "selectively blocks NR2B-containing NMDA receptors"}, {"measurement": "anti-nociceptive activity in animal models of acute and chronic pain", "setting": "acute and chronic pain", "value": "exhibits anti-nociceptive activity"}, {"measurement": "alpha-1 adrenergic receptor binding", "setting": "[3]", "value": "potent alpha-1 adrenergic receptor binding properties"}]}
{"compound": "CC(C(O)c1ccc(O)cc1)N1CCC(Cc2ccccc2)CC1", "note": "(single isomer, unassigned; (-)) [(−)-threo-ifenprodil]", "values": [{"measurement": "effectiveness on thermal stimulation of the lesioned paw, comparison of enantiomers", "setting": "[1]; 3 mg/kg ip", "value": "the most effective enantiomer"}, {"measurement": "efficacy versus the other enantiomers in a model of neuropathic pain", "setting": "neuropathic pain", "value": "does not produce a significant increase in efficacy over the other enantiomers"}, {"measurement": "hypotension liability (alpha1-adrenoceptor antagonism) versus the other enantiomers", "setting": "alpha1-adrenoceptor", "value": "lower hypotension liability"}]}
